Data set [1] deals with T1, CDK8/Cyclin C (Homo sapiens, UniProt P49336).
T1 construct: purchased ProQinase; host or cells: Sf9 insect cells or E. coli
As to the kind of experiment: 33PanQinase radiometric kinase assay, CDK8/Cyclin C. The data set is classed as biochemical. Conditions: read-out: percent inhibition of CDK8/Cyclin C. The procedure:
(§1) A radiometric protein kinase assay (33PanQinase Activity Assay) was used for measuring the kinase activity of the 320 protein kinases. All kinase assays were performed in 96-well FlashPlates™ from Perkin Elmer (Boston, Mass., USA) in a 50 μl reaction volume. The reaction cocktail was pipetted in 4 steps in the following order: • 1. 10 μl of non-radioactive ATP solution (in H2O) • 2. 25 μl of assay buffer/[γ-33P]-ATP mixture • 3. 5 μl of test sample in 10% DMSO • 4. 10 μl of enzyme/substrate mixture
(§2) All PKC assays (except the PKC-mu and the PKC-nu assay) additionally contained 1 mM CaCl2, 4 mM EDTA, 5 μg/ml phosphatidylserine and 1 μg/ml 1,2-dioleyl-glycerol.
The CAMKID, CAMK2A, CAMK2B, CAMK2D, CAMK4, CAMKK1, CAMKK2, DAPK2, EEF2K, MYLK, MYLK2 and MYLK3 assays additionally contained 1 μg/ml Calmodulin and 0.5 mM CaCl2). The PRKG1 and PRKG2 assays additionally contained 1 μM cGMP. The DNA-PK assay additionally contained 2.5 μg/ml DNA. The protein kinase reaction cocktails were incubated at 30° C. for 60 minutes. The reaction was stopped with 50 μl of 2% (v/v) H3PO4, plates were aspirated and washed two times with 200 μl 0.9% (w/v) NaCl. Incorporation of 33Pi (counting of “cpm”) was determined with a microplate scintillation counter (Microbeta, Wallac). All protein kinase assays were performed with a BeckmanCoulter Biomek 2000/SL robotic system.
All protein kinases provided by ProQinase were expressed in Sf9 insect cells or in E. coli as recombinant GST-fusion proteins or His-tagged proteins, either as full-length or enzymatically active fragments. All kinases were produced from human cDNAs and purified by either GSHaffinity chromatography or immobilized metal. Affinity tags were removed from a number of kinases during purification. The purity of the protein kinases was examined by SDSPAGE/Coomassie staining, the identity was checked by mass spectroscopy.
For each kinase, the median value of the cpm of three wells was defined as “low control” (n=3). This value reflects unspecific binding of radioactivity to the plate in the absence of a protein kinase but in the presence of the substrate. Additionally, for each kinase the median value of the cpm of three other wells was taken as the “high control”, i.e. full activity in the absence of any inhibitor (n=3). The difference between high and low control of each enzyme was taken as 100% activity. As part of the data evaluation the low control of each kinase was subtracted from the high control value as well as from their corresponding “compounds values”. The residual activity (in %) for each compounds well was calculated by using the following formula:
Res. Activity (%)=100×[(signal of compounds−low control)/(high control−low control)]

The subject of data set [2] is Human AML cell line MV4;11. Briefly: MV4;11 disseminated leukemia model (bioluminescence). In kind it is in vivo, NSG mice. Conditions: for Fold increase in leukemia burden 15 days after 1st dose / in vivo anti-leukemic efficacy (bioluminescence, words): NSG mice; for in vivo anti-leukemic efficacy (bioluminescence, words): compounds dosed at their highest tolerable dose; for Efficacy Rank Day 15: each compound at its own dose/schedule, data from 3 separate studies. As to the method: The in vivo anti-leukemic activity of Compounds A, B, C, D, and F was tested at the indicated doses and treatment schedules. The doses were chosen based on the compounds tolerability profile (i.e. CA was dosed at 0.16 mg/kg because higher doses caused weight loss or other tolerability issues outlined in Example 6). Human AML cell line MV4;11 expressing mCherry and luciferase were injected into NSG mice. Upon measurement of leukemia cell engraftment, treatment was initiated. Body weight and bioluminescence were measured. It has previously been shown (Shair, Nature 2015) that bioluminescence corresponds to leukemia burden. […] Moreover there was no appreciable advantage between IV or PO dosing observed.

Data set [3] relates to 320 protein kinases. As to the kind of experiment: 33PanQinase radiometric kinase assay, kinome profiling. In kind it is biochemical, human. Conditions: 1 μM; 320 kinases; initial test. As to the method: as §1, §2
The CAMKID, CAMK2A, CAMK2B, CAMK2D, CAMK4, CAMKK1, CAMKK2, DAPK2, EEF2K, MYLK, MYLK2 and MYLK3 assays additionally contained 1 μg/ml Calmodulin and 0.5 mM CaCl2). […] Incorporation of 33Pi (counting of “cpm”) was determined with a microplate scintillation counter (Microbeta, Wallac). […]
Kinases from external vendors CAR=Carna Biosciences Inc.; INV=Life Technologies (Invitrogen Corporation); MIL=Merck-Millipore (Millipore Corporation) were expressed, purified and quality-controlled by virtue of the vendors readings.
For each kinase, the median value of the cpm of three wells was defined as “low control” (n=3). […] The residual activity (in %) for each compounds well was calculated by using the following formula: […]

The target in data set [4] is T2, Opiate μ(OP3, MOP) (Homo sapiens, UniProt P35372).
T2 construct: Eurofins Panlabs
As to the kind of experiment: Panlab assay, Opiate μ(OP3, MOP). In kind it is binding. As to the method:
Compounds A, B, C, and D were tested in Panlab assays to evaluate potential off-target activity using standard assay kits. Methods employed in these studies have been adapted from the scientific literature to maximize reliability and reproducibility.
IC50 values were determined by a non-linear, least squares regression analysis using MathIQ™ (ID Business Solutions Ltd., UK). […] Where presented, the Hill coefficient (nH), defining the slope of the competitive binding curve, was calculated using MathIQ™.

Data set [5] in a line: Tolerability study of Compound A and Compound D (body weight). In kind it is in vivo, female NSG mice. The note with it: for initial loss in weight: 10 mg/kg dosing group (Compound A PO, Compound D IV), recovered after dosing holiday; for tolerability: doses at or below 3 mg/kg (Compound A PO, Compound D IV). The procedure:
Twenty-five female NSG mice were randomly assigned to various treatment groups as described in Table 11. All mice were treated for 7 days unless as indicated below.
On study days zero to six (seven doses), Compound A was administered via oral gavage in a volume of 10 mL/kg and Compound D was administered via intravenous injection into the lateral tail vein in a volume of 10 mL/kg. Body weights were recorded daily for fifteen days (days zero to fourteen) and animal health was assessed daily.
Mice were monitored clinically for signs of morbidity and for body weights daily. Mice showing signs of morbidity were euthanized as per study guidelines.

For data set [6], the target named is T3, Tachykinin NK1 (Homo sapiens, UniProt P25103).
T3 construct: Eurofins Panlabs
As to the kind of experiment: Panlab assay, Tachykinin NK1. In kind it is binding. The procedure:
Compounds A, B, C, and D were tested in Panlab assays to evaluate potential off-target activity using standard assay kits. Methods employed in these studies have been adapted from the scientific literature to maximize reliability and reproducibility. Reference standards were run as an integral part of each assay to ensure the validity of the results obtained.
IC50 values were determined by a non-linear, least squares regression analysis using MathIQ™ (ID Business Solutions Ltd., UK). Where inhibition constants (Ki) are presented, the Ki values were calculated using the equation of Cheng and Prusoff (Cheng, Y., Prusoff, W. H., Biochem. Pharmacol. 22:3099-3108, 1973) using the observed IC50 of the tested compound, the concentration of radioligand employed in the assay, and the historical values for the KD of the ligand (obtained experimentally at Eurofins Panlabs, Inc.). Where presented, the Hill coefficient (nH), defining the slope of the competitive binding curve, was calculated using MathIQ™.

Data set [7] concerns MKPL1. As to the kind of experiment: Half-maximal growth inhibition (GI50), MKPL1. The data set is classed as cell-based. Conditions: Homo sapiens, 240 h, AML, M7, read-out: GI50 (nM), day 10. The procedure:
Compounds A, B, C, D, and F were tested against various cell lines to probe their broad utility against cancer. Cortistatin A (CA) was also tested against the cell lines in a head to head fashion.

T2 sequence (P35372 whole entry): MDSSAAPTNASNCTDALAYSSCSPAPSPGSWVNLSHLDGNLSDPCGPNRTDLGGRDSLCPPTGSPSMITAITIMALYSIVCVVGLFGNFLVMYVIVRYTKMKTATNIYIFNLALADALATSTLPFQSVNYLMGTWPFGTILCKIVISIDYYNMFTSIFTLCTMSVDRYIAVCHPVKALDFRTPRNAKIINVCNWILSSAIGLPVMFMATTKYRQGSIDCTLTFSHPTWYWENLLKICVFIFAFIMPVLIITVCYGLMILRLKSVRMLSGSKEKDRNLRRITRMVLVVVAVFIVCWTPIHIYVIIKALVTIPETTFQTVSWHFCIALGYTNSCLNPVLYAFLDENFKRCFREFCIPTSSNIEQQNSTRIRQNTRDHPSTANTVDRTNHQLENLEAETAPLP
T3 sequence (P25103 whole entry): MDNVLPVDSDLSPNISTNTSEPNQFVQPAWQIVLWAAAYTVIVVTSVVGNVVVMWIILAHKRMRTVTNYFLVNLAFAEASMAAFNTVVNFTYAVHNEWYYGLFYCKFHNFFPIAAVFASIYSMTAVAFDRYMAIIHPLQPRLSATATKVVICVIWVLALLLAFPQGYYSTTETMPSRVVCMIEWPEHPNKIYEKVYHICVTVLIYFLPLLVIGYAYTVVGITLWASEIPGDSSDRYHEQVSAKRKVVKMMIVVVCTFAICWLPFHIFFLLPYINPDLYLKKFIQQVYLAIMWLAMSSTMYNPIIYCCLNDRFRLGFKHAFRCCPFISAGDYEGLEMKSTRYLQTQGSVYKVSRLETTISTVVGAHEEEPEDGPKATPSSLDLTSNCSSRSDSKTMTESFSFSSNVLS
T1 sequence (P49336 whole entry): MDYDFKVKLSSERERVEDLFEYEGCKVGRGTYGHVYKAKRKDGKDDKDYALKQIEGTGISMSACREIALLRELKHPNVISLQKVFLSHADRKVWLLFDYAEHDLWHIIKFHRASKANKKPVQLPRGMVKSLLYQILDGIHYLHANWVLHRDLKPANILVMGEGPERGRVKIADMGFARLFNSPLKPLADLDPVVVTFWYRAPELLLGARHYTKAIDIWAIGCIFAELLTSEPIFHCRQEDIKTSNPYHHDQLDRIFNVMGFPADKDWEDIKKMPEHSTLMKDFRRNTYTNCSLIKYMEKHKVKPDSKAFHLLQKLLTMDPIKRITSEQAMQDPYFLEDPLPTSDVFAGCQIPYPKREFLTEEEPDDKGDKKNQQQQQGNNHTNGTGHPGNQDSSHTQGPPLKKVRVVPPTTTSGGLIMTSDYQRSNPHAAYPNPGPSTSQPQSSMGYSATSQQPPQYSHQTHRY
T1 sequence (P24863 whole entry partner): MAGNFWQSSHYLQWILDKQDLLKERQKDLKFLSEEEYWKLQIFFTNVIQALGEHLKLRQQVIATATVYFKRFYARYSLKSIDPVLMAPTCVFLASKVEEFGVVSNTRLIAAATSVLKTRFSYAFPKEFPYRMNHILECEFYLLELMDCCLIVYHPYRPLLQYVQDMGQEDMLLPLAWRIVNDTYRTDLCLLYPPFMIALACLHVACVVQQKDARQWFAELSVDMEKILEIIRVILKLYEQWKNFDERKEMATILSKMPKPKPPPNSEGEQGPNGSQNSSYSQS

As for `C[C@]12CC=C3C=C4CC[C@@H](N5CC(N)C5)C[C@]45CC[C@]3(O5)[C@@H]1CC[C@@H]2c1ccc2ccncc2c1` [Compound C], the inhibition at 1 µM in data set [1] is > 50%. Moreover, in data set [2] (5 mpk PO 7on/4off/4on), the “Fold increase in leukemia burden 15 days after 1st dose” value (shortened to “Fold increase”) is on record as 2.2 fold. Also, in data set [2], the “in vivo anti-leukemic efficacy (bioluminescence, words)” value (“in vivo anti-leukemic efficacy” below) is reported as “superior in vivo efficacy as compared to Compound F” and the “Efficacy Rank Day 15” value is 2.
On to `C[C@]12CC=C3C=C4CC[C@@H](O)C[C@]45CC[C@]3(O5)[C@@H]1CC[C@@H]2c1ccc2ccncc2c1` [Compound A, (3S,3aR,9R,10aR,12aS,12bR)-3-(isoquinolin-7-yl)-3a-methyl-1,2,3,3a,4,7,8,9,10,11,12,12b-dodecahydro-10a,12a-epoxybenzo[4,5]cyclohepta[1,2-e]inden-9-ol], for which, in data set [1], the inhibition at 1 µM was > 50%. The “number of kinases with an average of >50% inhibition” value in data set [3] came to 5. In addition, the “Fold increase” value in data set [2] (20 mpk PO Q5Dx2) is listed as 10.4 fold. For the same compound, in data set [2], the “in vivo anti-leukemic efficacy” value was “similarly efficacious to Compound F” and the “Efficacy Rank Day 15” value was 5. Moreover, in data set [4], half-maximal inhibition (IC50) required 5.73 µM and the “nH (Hill coefficient), Opiate μ(OP3, MOP)” value turned out to be 0.90. The compound further had a Ki in data set [4] (Cheng and Prusoff) of 2.33 µM. For the same compound, in data set [5], the “initial loss in weight” value was “approximately 15%” and the “tolerability” value is recorded as “well tolerated”. Further, in data set [6], it took 5.94 µM to reach half-maximal inhibition (IC50) and the “nH (Hill coefficient), Tachykinin NK1” value is listed as 1.01. For the same compound, the affinity in data set [6] (Cheng and Prusoff) corresponds to a Ki of 4.3 µM.
With `C[C@]12CC=C3C=C4CC[C@@H](N5CC[C@@H](N)C5)C[C@]45CC[C@]3(O5)[C@@H]1CC[C@@H]2c1ccc2ccncc2c1` [Compound B], the inhibition at 1 µM in data set [1] is > 50%. Moreover, the “Fold increase” value in data set [2] (10 mpk PO 7 on/2off/6on) is reported as 5.2 fold. Moreover, in data set [2], the “in vivo anti-leukemic efficacy” value was “superior in vivo efficacy as compared to Compound F” and the “Efficacy Rank Day 15” value amounted to 3. The GI50 in data set [7] was 2 nM.
With `C[C@]12CC=C3C=C4CC[C@@H](N5C[C@H](O)[C@@H](O)C5)C[C@]45CC[C@]3(O5)[C@@H]1CC[C@@H]2c1ccc2ccncc2c1` [Compound D], the inhibition at 1 µM in data set [1] was > 50%. Further, in data set [2] (3 mpk IV 7on/2off/4on then IP 2on), the “Fold increase” value is on record as 1.1 fold. Besides, in data set [2], the “in vivo anti-leukemic efficacy” value is given as “superior in vivo efficacy as compared to Compound F” and the “Efficacy Rank Day 15” value turned out to be 1. Moreover, in data set [5], the “initial loss in weight” value was “approximately 20%” and the “tolerability” value is “well tolerated”. Further, the GI50 in data set [7] was found to be 1.5 nM.

As usually defined, the IC50 is the point on the concentration scale where inhibition reaches its midpoint. One may read the Ki as a measure of affinity in units of concentration, obtained from inhibition or displacement. Low values mean tighter binding, high ones weaker binding. What is called GI50 is the concentration giving 50% growth inhibition.

The values above are taken from patent publication US20180298024A1, “CORTISTATIN ANALOGS AND USES THEREOF” (President and Fellows of Harvard College, priority 2015, published 2018).
